Experimental data published in US8546147B2, “Imidazo[1,2-α]pyrazin-3(7H)-one derivatives bearing a new electron-rich structure” (Universita degli Studi di Siena, priority 2009, dated 2013).
Read-outs that look alike come from different tables or passages of the source.

Experiments:
[1] = cited from earlier work
[2] = target: T1, RLuC (donor) and Green Fluorescent Protein GFP (acceptor) (Renilla reniformis, UniProt P27652); settings: three different times, FIG. 8-10
T1 sequence (P27652 1-311): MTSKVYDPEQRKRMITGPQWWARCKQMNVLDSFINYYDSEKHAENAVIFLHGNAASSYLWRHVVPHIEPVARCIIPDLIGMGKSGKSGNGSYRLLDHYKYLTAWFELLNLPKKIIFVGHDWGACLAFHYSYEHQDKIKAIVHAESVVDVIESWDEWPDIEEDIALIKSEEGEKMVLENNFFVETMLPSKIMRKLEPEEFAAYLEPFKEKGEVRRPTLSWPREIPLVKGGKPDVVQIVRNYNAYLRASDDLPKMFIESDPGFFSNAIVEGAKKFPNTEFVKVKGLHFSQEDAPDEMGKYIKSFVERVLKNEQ

[3] = target: T2, Renilla Luciferase (RLuC) (Renilla reniformis, UniProt P27652)
T2 sequence (P27652 1-311): T1 sequence (P27652 1-311)
Description: Bioluminescence Spectrum.
Bioluminescence was measured according to standard procedures.^40

[4] = Chemiluminescence spectrum in DMSO (Shimadzu RF5001PC); format: physicochemical; settings: for max. emission peak of chemiluminescent spectrum: 1-3 μg/mL in DMSO
Description: Chemiluminescence Spectrums.
Consequently, 10 μL of the stock solution were directly diluted in the quartz cuvette reader of the Fluorescence Spectrophotometer Shimadzu RF5001PC, containing 3 mL of DMSO, to obtain a final sample concentration of 1-3 μg/mL.

RLuc = target: T3, RLuc (Renilla reniformis, UniProt P27652); settings: cited from earlier work
T3 sequence (P27652 1-311): T1 sequence (P27652 1-311)

[5] = cited from earlier work; remark: listed apart in the source
[6] = first line of values, native = 1.00
[7] = second line of values (line with half-rise time in ms)

For O=c1c(Cc2ccc(F)cc2)nc2c(CC3CCCC3)[nH]c(-c3ccc(O)cc3)cn1-2 [Coelenterazine fcp], the “Half-rise Time” value ([1]; first line of values) is given as 0.4 to 0.8 s, the “Relative Intensity” value [1, 6] is given as 135 and the “Relative Luminescence capacity” value [1, 6] is given as 0.57.
For Coelenterazine hcp, the “Half-rise Time” value ([1]; first line of values) is given as 0.15 to 0.3 s, the “Relative Intensity” value [1, 6] is given as 190 and the “Relative Luminescence capacity” value [1, 6] is given as 0.67. For the same molecule, the “Relative Intensity” value [1, 7] was 500, the “Relative Luminescence capacity” value [1, 7] was 0.65 and the “Half-rise Time” value ([1]; second line of values) was 0.002 to 0.005 s.
For Oc1ccc(-c2cn3c(O)c(Cc4ccccc4)nc3c(Cc3ccccc3)n2)cc1 [Coelenterazine h], the “Half-rise Time” value ([1]; first line of values) is given as 0.4 to 0.80 s, the “Relative Intensity” value [1, 6] is given as 10 and the “Relative Luminescence capacity” value [1, 6] is given as 0.82. For the same molecule, the “Relative Intensity” value [1, 7] was 16, the “Relative Luminescence capacity” value [1, 7] was 0.75 and the “Half-rise Time” value ([1]; second line of values) was 0.006 to 0.03 s.
In the case of Coelenterazine ip, the “Half-rise Time” value ([1]; first line of values) is listed as 1 s, the “Relative Intensity” value [1, 6] is listed as 47 and the “Relative Luminescence capacity” value [1, 6] is listed as 0.54.
In the case of O=c1c(Cc2ccccc2)nc2c(Cc3ccccc3)[nH]c(-c3ccc4c(c3)OCO4)cn1-2 [Compound 23e, 2,8-Dibenzyl-6-[3,4-(methylendioxy)-phenyl]imidazo-[1,2-a]pirazin-3(7H)-one], the “emission over time in BRET experiment (in words)” value [2] is reported as “decrease over time”, the “Shifts vs.23b” value ([3]; 1st measurement) is reported as 10.2 nm and the Bioluminescent emission max ([3]; 1st measurement of triplicate) is reported as 397.6 nm. The “Shifts vs.23b” value ([3]; 2nd measurement) was 5.5 nm, the Bioluminescent emission max ([3]; 2nd measurement of triplicate) was 397.5 nm and the “Shifts vs.23b” value ([3]; 3d measurement) was 5.2 nm. For the same molecule, the Bioluminescent emission max ([3]; 3d measurement of triplicate) was 398.2 nm.
For O=c1c(Cc2ccccc2)nc2c(Sc3ccc(Cl)cc3)[nH]c(-c3ccc(O)cc3)cn1-2 [Compound 23i, 2-Benzyl-8-(4-chlorophenylthio)-6-(4-hydroxyphenyl)imidazo[1,2-a]pyrazin-3(7H)-one], the “Chemil. Imax” value [4] was 505 nm and the “Biolum. Imax” value [3] was 510 nm.
In the case of O=c1c(Cc2ccc(I)cc2)nc2c(Cc3ccccc3)[nH]c(-c3ccc(O)cc3)cn1-2 [Coelenterazine i], the “Half-rise Time” value ([1]; first line of values) is listed as 8 s, the “Relative Intensity” value [1, 6] is listed as 0.03 and the “Relative Luminescence capacity” value [1, 6] is listed as 0.70.
For Coelenterazine n, the “Half-rise Time” value ([1]; first line of values) is listed as 5 s, the “Relative Intensity” value [1, 6] is listed as 0.01 and the “Relative Luminescence capacity” value [1, 6] is listed as 0.26. The “Relative Intensity” value [1, 7] was 0.15, the “Relative Luminescence capacity” value [1, 7] was 0.25 and the “Half-rise Time” value ([1]; second line of values) was 0.006 to 0.03 s.
With O=c1c(Cc2ccccc2)nc2c(Sc3ccc(Cl)cc3)[nH]c(-c3ccccc3)cn1-2 [Compound 23n, 2-Benzyl-8-(4-chlorophenylthio)-6-phenylimidazo[1,2-a]pyrazin-3(7H)-one] the “Chemil. Imax” value [4] was 505 nm.
In the case of O=c1c(Cc2ccccc2)nc2c(Cc3ccccc3)[nH]c(-c3ccccc3)cn1-2 [Coelenterazine 400a], the Rluc emission peak (RLuc) is listed as 395 nm.
For O=c1c(Cc2ccc(O)cc2)nc2c(CC3CCCC3)[nH]c(-c3ccc(O)cc3)cn1-2 [Coelenterazine cp], the “Half-rise Time” value ([1]; first line of values) is given as 0.15 to 0.3 s, the “Relative Intensity” value [1, 6] is given as 20 and the “Relative Luminescence capacity” value [1, 6] is given as 0.95. The “Relative Intensity” value [1, 7] was 28, the “Relative Luminescence capacity” value [1, 7] was 0.63 and the “Half-rise Time” value ([1]; second line of values) was 0.005 s.
For O=c1c(Cc2ccccc2)nc2c(Sc3ccccc3)[nH]c(-c3ccccc3)cn1-2 [Compound 23f, 2-Benzyl-6-phenyl-8-(phenylthio)imidazo-[1,2-a]pirazin-3(7H)-one], the “emission over time in BRET experiment (in words)” value [2] was “long lasting”, the “kinetic of chemiluminescence (in words)” value [4] was “slower than 23b” and the “max. emission peak of chemiluminescent spectrum” value [4] was 510 nm. For the same molecule, the “emission shift between chemiluminescent spectrums” value ([4]; 23f versus 23b) was “about 45 nm”, the “chemiluminescence intensity (in words)” value ([4]; compared with 23b) was “relative lowest intensity” and the bioluminescent emission [3] was “about 415 nm”. The “shift in respect of compound 23b” value [3] was “about 30 nm”, the “Shifts vs.23b” value ([3]; 1st measurement) was 27.7 nm and the Bioluminescent emission max ([3]; 1st measurement of triplicate) was 415.1 nm. The “Shifts vs.23b” value ([3]; 2nd measurement) was 27.4 nm, the Bioluminescent emission max ([3]; 2nd measurement of triplicate) was 419.4 nm and the “Shifts vs.23b” value ([3]; 3d measurement) was 31.4 nm. The Bioluminescent emission max ([3]; 3d measurement of triplicate) was 424.3 nm.
In the case of O=c1c(Cc2ccccc2)nc2c(Cc3ccccc3)[nH]c(-c3ccccc3)cn1-2 [Compound 23b, 2,8-Dibenzyl-6-phenylimidazo-[1,2-a]pyrazin-3(7H)-one], the “max. emission peak of chemiluminescent spectrum” value [4] is reported as 465 nm.
For O=c1c(Cc2ccc(O)cc2)nc2c(Cc3ccccc3)[nH]c(-c3ccc(O)cc3)cn1-2 [Compound 1, coelenterazine], the ΦCl ([5]; chemiluminescence quantum yield) is listed as 0.21%, the “Relative Light Yield” value ([5]; in brackets, relative to compound 1 (1.0)) is listed as 1.0 and the “Half-rise Time” value ([1]; first line of values) is listed as 0.4 to 0.8 s. The “Relative Intensity” value [1, 6] was 1.00, the “Relative Luminescence capacity” value [1, 6] was 1.00 and the “Half-rise Time” value ([1]; second line of values) was 0.006 to 0.03 s.
In the case of O=c1c(Cc2ccc(F)cc2)nc2c(Cc3ccccc3)[nH]c(-c3ccc(O)cc3)cn1-2 [Coelenterazine f], the “Half-rise Time” value ([1]; first line of values) is listed as 0.4 to 0.8 s, the “Relative Intensity” value [1, 6] is listed as 18 and the “Relative Luminescence capacity” value [1, 6] is listed as 0.80. The “Relative Intensity” value [1, 7] was 20, the “Relative Luminescence capacity” value [1, 7] was 0.80 and the “Half-rise Time” value ([1]; second line of values) was 0.006 to 0.03 s.
For Oc1ccc(Cc2nc3c(Cc4ccccc4)nc4c(n3c2O)CCc2cc(O)ccc2-4)cc1 [Coelenterazine e], the “Half-rise Time” value ([1]; first line of values) is listed as 0.15 to 0.3 s, the “Relative Intensity” value [1, 6] is listed as 4 and the “Relative Luminescence capacity” value [1, 6] is listed as 0.5.
